From article PMC6120666 (The EMBO Journal, 2018)

Legend:
Assay in all cases: Drug affinity chromatography with c-ponatinib and LC-MS/MS (ponatinib interactome)
Format in all cases: binding
[1] = biological target: T1, proteins of U2OS cell lysate (Homo sapiens, UniProt Q00839); settings: captured protein HNRNPU, Rank 192
T1 construct: Proteins enriched by c-ponatinib from U2OS cell lysate; endogenous in cells; host or cells: U2OS cell lysate
How it was run: (§1)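 Proteins were identified by nano-UPLC–MS/MS after elution with formic acid and trypsin digestion. They were captured from U2OS lysate (2 mg protein per pulldown, NP-40 buffer) on amine-coupled NHS beads during a 2 h incubation at 4 °C.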

[2] = biological target: T2, proteins of U2OS cell lysate (Homo sapiens, UniProt Q00610); settings: CLTC, Clathrin heavy chain 1
T2 construct: Proteins enriched by c-ponatinib from U2OS cell lysate; endogenous in cells; host or cells: U2OS cell lysate
T2 sequence (Q00610 whole entry): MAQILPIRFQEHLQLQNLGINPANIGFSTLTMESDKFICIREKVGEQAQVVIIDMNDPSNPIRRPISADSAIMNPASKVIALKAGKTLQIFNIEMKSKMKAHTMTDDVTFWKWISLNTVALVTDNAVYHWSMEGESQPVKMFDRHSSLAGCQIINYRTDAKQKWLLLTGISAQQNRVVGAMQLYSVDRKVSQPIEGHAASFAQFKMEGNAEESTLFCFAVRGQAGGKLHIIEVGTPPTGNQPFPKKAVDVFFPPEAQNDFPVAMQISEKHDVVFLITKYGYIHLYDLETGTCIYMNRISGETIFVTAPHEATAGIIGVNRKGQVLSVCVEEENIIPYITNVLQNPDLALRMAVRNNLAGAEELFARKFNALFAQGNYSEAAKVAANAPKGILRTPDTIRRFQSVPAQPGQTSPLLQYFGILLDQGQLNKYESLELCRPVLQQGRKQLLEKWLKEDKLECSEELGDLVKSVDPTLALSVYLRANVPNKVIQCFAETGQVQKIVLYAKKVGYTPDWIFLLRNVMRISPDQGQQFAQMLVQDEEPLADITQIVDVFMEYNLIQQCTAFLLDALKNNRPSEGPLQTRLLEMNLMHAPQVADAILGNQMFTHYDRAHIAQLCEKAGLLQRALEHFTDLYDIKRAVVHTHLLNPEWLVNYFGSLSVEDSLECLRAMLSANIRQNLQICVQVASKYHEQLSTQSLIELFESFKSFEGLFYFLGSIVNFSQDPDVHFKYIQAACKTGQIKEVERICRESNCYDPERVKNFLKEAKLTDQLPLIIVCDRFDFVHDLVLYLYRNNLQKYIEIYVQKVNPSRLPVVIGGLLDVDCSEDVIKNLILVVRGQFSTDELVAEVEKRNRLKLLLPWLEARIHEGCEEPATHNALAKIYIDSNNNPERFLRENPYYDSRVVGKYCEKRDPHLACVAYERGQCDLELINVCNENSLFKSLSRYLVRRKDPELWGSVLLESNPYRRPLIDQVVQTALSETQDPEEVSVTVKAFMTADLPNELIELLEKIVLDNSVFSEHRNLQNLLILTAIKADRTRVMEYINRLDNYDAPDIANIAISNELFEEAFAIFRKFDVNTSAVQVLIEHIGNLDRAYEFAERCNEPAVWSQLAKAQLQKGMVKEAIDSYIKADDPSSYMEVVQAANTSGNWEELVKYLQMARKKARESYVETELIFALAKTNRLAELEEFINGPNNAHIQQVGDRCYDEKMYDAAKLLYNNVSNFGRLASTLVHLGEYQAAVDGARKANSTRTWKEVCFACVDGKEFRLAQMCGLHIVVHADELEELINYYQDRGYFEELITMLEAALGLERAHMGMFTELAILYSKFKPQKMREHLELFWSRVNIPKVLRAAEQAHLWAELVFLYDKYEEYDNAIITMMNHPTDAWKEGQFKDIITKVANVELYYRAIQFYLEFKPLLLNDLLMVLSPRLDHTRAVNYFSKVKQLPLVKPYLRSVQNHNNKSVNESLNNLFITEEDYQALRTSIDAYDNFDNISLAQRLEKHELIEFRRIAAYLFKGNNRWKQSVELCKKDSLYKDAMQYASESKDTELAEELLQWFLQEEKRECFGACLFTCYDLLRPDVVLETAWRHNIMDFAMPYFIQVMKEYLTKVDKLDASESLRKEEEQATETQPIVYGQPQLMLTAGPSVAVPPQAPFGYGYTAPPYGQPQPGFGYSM
How it was run: as §1

[3] = biological target: T3, proteins of U2OS cell lysate (Homo sapiens, UniProt Q0ZGT2); settings: NEXN, Nexilin
T3 construct: Proteins enriched by c-ponatinib from U2OS cell lysate; endogenous in cells; host or cells: U2OS cell lysate
T3 sequence (Q0ZGT2 whole entry): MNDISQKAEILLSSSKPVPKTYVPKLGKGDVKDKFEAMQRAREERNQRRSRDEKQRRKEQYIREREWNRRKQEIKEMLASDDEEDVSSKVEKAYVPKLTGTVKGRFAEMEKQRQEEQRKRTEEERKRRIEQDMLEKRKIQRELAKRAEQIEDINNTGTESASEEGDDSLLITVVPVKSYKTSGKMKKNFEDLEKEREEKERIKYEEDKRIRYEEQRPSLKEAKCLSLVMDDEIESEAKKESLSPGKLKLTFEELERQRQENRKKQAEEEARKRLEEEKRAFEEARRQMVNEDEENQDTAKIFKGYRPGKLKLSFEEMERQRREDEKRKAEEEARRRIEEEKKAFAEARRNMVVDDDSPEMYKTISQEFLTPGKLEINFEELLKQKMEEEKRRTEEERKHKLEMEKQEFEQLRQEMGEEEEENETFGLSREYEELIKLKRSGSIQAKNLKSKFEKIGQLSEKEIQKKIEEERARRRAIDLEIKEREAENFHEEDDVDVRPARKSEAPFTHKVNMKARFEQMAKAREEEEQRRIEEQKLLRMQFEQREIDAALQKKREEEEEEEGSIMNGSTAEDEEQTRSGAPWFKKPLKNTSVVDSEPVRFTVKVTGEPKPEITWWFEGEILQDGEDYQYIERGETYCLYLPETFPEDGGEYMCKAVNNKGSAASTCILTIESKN
How it was run: as §1

[4] = biological target: T4, proteins of U2OS cell lysate (Homo sapiens, UniProt P24534); settings: EEF1B2, Elongation factor 1-beta
T4 construct: Proteins enriched by c-ponatinib from U2OS cell lysate; endogenous in cells; host or cells: U2OS cell lysate
T4 sequence (P24534 whole entry): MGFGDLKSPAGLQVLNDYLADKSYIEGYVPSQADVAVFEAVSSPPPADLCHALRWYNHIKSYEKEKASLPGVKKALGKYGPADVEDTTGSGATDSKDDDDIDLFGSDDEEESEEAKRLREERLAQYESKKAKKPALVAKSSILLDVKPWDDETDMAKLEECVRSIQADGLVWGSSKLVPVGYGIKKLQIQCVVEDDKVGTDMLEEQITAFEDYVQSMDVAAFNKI
How it was run: as §1

[5] = biological target: T5, proteins of U2OS cell lysate (Homo sapiens, UniProt P62820); settings: RAB1A;RAB1B, Ras-related protein Rab-1A
T5 construct: Proteins enriched by c-ponatinib from U2OS cell lysate; endogenous in cells; host or cells: U2OS cell lysate
How it was run: as §1

[6] = biological target: T6, proteins of U2OS cell lysate (Homo sapiens, UniProt P62714); settings: PPP2CB, Serine/threonine-protein phosphatase 2A catalytic subunit beta isoform
T6 construct: Proteins enriched by c-ponatinib from U2OS cell lysate; endogenous in cells; host or cells: U2OS cell lysate
T6 sequence (P62714 whole entry, canonical isoform): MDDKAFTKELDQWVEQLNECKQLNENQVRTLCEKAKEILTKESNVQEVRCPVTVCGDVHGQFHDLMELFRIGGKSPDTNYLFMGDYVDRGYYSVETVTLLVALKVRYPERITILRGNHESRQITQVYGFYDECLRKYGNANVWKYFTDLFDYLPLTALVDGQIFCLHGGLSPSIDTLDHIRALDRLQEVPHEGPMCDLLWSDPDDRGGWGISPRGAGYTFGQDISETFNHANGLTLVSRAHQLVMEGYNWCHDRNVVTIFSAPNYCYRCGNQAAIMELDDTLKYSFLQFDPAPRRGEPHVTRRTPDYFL
How it was run: as §1

[7] = biological target: T7, proteins of U2OS cell lysate (Homo sapiens, UniProt Q9UPT5); settings: EXOC7, Exocyst complex component 7
T7 construct: Proteins enriched by c-ponatinib from U2OS cell lysate; endogenous in cells; host or cells: U2OS cell lysate
T7 sequence (Q9UPT5 whole entry): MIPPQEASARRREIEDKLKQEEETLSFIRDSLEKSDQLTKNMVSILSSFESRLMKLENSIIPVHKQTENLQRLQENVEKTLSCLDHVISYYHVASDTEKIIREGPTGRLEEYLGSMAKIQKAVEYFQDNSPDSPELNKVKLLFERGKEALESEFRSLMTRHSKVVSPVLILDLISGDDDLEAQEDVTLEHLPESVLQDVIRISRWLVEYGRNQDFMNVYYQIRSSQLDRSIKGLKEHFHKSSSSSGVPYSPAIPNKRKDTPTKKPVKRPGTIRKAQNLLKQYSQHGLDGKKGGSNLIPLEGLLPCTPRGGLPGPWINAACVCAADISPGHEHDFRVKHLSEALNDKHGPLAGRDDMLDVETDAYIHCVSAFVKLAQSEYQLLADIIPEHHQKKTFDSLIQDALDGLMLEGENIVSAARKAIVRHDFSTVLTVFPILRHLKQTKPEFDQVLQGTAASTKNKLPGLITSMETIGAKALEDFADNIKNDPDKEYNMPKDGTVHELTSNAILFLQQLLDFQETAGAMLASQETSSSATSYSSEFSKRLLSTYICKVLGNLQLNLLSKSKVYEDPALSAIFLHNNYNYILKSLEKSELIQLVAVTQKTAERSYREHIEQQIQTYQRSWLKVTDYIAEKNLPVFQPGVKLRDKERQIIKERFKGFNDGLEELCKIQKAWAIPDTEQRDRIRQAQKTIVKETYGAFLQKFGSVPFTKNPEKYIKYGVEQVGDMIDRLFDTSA
How it was run: as §1

[8] = biological target: T8, proteins of U2OS cell lysate (Homo sapiens, UniProt P49756); settings: RBM25, RNA-binding protein 25
T8 construct: Proteins enriched by c-ponatinib from U2OS cell lysate; endogenous in cells; host or cells: U2OS cell lysate
T8 sequence (P49756 whole entry): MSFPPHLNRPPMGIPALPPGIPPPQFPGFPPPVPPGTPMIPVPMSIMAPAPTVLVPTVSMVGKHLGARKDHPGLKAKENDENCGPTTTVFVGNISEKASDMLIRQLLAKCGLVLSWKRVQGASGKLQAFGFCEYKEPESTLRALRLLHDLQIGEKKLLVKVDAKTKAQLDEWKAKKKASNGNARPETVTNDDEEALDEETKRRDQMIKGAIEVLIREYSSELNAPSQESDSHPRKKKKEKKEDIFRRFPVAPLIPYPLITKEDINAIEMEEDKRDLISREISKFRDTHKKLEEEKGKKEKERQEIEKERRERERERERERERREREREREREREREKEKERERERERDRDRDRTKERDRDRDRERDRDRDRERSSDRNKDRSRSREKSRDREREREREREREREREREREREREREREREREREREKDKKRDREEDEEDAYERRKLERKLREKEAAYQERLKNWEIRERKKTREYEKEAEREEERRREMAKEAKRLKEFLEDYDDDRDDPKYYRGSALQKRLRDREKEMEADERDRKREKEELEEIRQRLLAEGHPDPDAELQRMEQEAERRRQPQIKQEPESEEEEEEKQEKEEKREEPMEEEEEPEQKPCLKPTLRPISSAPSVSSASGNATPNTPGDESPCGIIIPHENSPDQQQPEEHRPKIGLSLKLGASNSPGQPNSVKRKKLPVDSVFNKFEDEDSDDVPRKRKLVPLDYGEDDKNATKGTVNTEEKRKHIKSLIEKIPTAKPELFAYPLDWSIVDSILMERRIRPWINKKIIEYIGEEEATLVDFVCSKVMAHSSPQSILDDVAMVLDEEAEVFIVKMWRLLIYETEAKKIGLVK
How it was run: as §1

[9] = biological target: T9, proteins of U2OS cell lysate (Homo sapiens, UniProt O75521); settings: ECI2, Enoyl-CoA delta isomerase 2, mitochondrial
T9 construct: Proteins enriched by c-ponatinib from U2OS cell lysate; endogenous in cells; host or cells: U2OS cell lysate
T9 sequence (O75521 39-394): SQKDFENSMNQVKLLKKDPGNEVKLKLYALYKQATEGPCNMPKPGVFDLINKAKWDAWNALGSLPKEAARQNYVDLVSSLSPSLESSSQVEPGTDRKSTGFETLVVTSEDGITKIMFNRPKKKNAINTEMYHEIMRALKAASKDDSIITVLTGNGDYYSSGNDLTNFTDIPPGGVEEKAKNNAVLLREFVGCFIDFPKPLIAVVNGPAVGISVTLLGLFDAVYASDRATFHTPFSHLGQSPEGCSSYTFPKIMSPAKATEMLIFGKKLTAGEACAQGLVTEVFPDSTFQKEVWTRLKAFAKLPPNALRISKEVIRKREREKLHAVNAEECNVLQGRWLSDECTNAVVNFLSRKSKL
How it was run: as §1

[10] = biological target: T10, proteins of U2OS cell lysate (Homo sapiens, UniProt Q9Y4K4); settings: MAP4K5, Mitogen-activated protein kinase kinase kinase kinase 5
T10 construct: Proteins enriched by c-ponatinib from U2OS cell lysate; endogenous in cells; host or cells: U2OS cell lysate
How it was run: as §1

[11] = biological target: T11, proteins of U2OS cell lysate (Homo sapiens, UniProt P51149); settings: RAB7A, Ras-related protein Rab-7a
T11 construct: Proteins enriched by c-ponatinib from U2OS cell lysate; endogenous in cells; host or cells: U2OS cell lysate
How it was run: as §1

[12] = biological target: T12, proteins of U2OS cell lysate (Homo sapiens, UniProt P28070); settings: PSMB4, Proteasome subunit beta type-4
T12 construct: Proteins enriched by c-ponatinib from U2OS cell lysate; endogenous in cells; host or cells: U2OS cell lysate
T12 sequence (P28070 46-264): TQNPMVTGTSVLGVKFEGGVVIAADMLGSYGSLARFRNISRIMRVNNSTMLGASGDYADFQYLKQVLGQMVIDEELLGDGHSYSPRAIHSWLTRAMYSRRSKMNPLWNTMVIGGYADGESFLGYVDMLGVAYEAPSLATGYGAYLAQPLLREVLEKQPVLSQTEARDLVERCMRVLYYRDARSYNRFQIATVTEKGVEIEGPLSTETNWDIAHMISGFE
How it was run: as §1

[13] = biological target: T13, proteins of U2OS cell lysate (Homo sapiens, UniProt Q14204); settings: DYNC1H1, Cytoplasmic dynein 1 heavy chain 1
T13 construct: Proteins enriched by c-ponatinib from U2OS cell lysate; endogenous in cells; host or cells: U2OS cell lysate
How it was run: as §1

[14] = biological target: T14, proteins of U2OS cell lysate (Homo sapiens, UniProt P02545); settings: LMNA, Prelamin-A/C;Lamin-A/C
T14 construct: Proteins enriched by c-ponatinib from U2OS cell lysate; endogenous in cells; host or cells: U2OS cell lysate
How it was run: as §1

[15] = biological target: T15, proteins of U2OS cell lysate (Homo sapiens, UniProt O43318); settings: MAP3K7;DKFZp586F0420, Mitogen-activated protein kinase kinase kinase 7
T15 construct: Proteins enriched by c-ponatinib from U2OS cell lysate; endogenous in cells; host or cells: U2OS cell lysate
How it was run: as §1

[16] = biological target: T16, proteins of U2OS cell lysate (Homo sapiens, UniProt P27708); settings: CAD, CAD protein
T16 construct: Proteins enriched by c-ponatinib from U2OS cell lysate; endogenous in cells; host or cells: U2OS cell lysate
How it was run: as §1

[17] = biological target: T17, proteins of U2OS cell lysate (Homo sapiens, UniProt P07814); settings: EPRS, Bifunctional glutamate/proline--tRNA ligase
T17 construct: Proteins enriched by c-ponatinib from U2OS cell lysate; endogenous in cells; host or cells: U2OS cell lysate
How it was run: as §1

[18] = biological target: T18, proteins of U2OS cell lysate (Homo sapiens, UniProt Q8N3V7); settings: SYNPO, Synaptopodin
T18 construct: Proteins enriched by c-ponatinib from U2OS cell lysate; endogenous in cells; host or cells: U2OS cell lysate
How it was run: as §1

[19] = biological target: T19, proteins of U2OS cell lysate (Homo sapiens, UniProt P62249); settings: RPS16, 40S ribosomal protein S16
T19 construct: Proteins enriched by c-ponatinib from U2OS cell lysate; endogenous in cells; host or cells: U2OS cell lysate
How it was run: as §1

Compound | Average LFQ intensity [1] | Average LFQ PON_WT [2] | Average LFQ PON_WT [3] | Average LFQ PON_WT [4] | Average LFQ PON_WT [5] | Average LFQ PON_WT [6] | Average LFQ PON_WT [7] | Average LFQ PON_WT [8] | Average LFQ PON_WT [9] | Average LFQ PON_WT [10] | Average LFQ PON_WT [11] | Average LFQ PON_WT [12] | Average LFQ PON_WT [13] | Average LFQ PON_WT [14] | Average LFQ PON_WT [15] | Average LFQ PON_WT [16] | Average LFQ PON_WT [17] | Average LFQ PON_WT [18] | Average LFQ PON_WT [19]
Cc1ccc(C(=O)Nc2ccc(CN3CCN(CCCN)CC3)c(C(F)(F)F)c2)cc1C#Cc1cnc2cccnn12 [c-ponatinib, reference compound] | 21.9786 | – | – | – | – | – | – | – | – | – | – | – | – | – | – | – | – | – | –
Cc1ccc(C(=O)Nc2ccc(CN3CCN(C)CC3)c(C(F)(F)F)c2)cc1C#Cc1cnc2cccnn12 [PON] | – | 26.5716 | 20.2843 | 23.7043 | 23.3468 | 21.415 | 19.8682 | 20.8592 | 24.0947 | 19.9263 | 20.9612 | 21.0941 | 24.2612 | 23.7594 | 25.3656 | 21.3466 | 20.1996 | 23.2218 | 20.8259
